Source: ChEMBL document CHEMBL3352754, “Bicyclic tetrapeptides as potent HDAC inhibitors: effect of aliphatic loop position and hydrophobicity on inhibitory activity” (Bioorg Med Chem, 2014)
Square brackets hold non-standard residues; d marks the D form. Peptide text beside a SMILES is read from it. * marks the point of attachment. Asu = N[C@@H](CCCCCC(=O)O)C(=O)O; NHOH = ON*

Assays:
Mv1Lu = test: Inhibition of HDAC in mink Mv1Lu cells expressing human wild-type p21 promoter luciferase fusion plasmid assessed as drug level inducing 10-fold higher luciferase activity by p21 promoter assay relative to baseline; type: cell-based; details: Neovison vison
[1] = molecular target: T1, Protein deacetylase HDAC6 (Mus musculus, UniProt Q9Z2V5); test: Inhibition of mouse HDAC6 expressed in HEK293T cells assessed as aminomethyl coumarin release using Ac-KGLGK(Ac)-MCA) substrate after 30 mins by FLIPR method; type: cell-based, HEK-293T
T1 sequence (Q9Z2V5 whole entry): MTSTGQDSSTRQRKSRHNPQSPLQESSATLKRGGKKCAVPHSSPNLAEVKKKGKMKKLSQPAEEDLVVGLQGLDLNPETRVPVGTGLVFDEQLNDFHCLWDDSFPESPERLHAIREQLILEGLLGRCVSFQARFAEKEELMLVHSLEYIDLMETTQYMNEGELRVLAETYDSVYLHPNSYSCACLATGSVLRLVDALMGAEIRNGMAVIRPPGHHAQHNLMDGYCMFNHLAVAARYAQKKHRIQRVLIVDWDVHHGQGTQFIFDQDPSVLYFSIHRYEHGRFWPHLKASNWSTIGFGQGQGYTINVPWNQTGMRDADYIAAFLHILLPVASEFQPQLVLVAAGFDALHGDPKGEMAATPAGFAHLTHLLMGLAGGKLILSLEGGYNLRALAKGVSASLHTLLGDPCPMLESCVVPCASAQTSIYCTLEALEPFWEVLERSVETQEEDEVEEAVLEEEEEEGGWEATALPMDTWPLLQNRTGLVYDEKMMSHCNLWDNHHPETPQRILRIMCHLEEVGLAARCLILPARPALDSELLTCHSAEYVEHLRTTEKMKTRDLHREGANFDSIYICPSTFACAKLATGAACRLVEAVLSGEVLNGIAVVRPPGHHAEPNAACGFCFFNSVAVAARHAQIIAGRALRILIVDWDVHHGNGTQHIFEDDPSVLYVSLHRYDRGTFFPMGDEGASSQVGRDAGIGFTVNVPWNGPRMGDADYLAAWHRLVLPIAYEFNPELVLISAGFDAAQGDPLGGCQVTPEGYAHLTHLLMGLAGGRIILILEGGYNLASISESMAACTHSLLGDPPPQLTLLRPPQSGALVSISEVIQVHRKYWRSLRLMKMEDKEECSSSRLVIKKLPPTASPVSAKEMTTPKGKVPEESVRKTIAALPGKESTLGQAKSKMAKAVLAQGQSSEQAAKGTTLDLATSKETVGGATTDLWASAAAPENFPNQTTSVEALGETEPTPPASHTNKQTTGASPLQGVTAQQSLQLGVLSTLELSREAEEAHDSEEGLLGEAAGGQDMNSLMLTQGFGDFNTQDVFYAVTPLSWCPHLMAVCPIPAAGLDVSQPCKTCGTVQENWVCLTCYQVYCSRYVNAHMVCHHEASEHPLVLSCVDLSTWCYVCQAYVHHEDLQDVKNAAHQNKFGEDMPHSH

Histone deacetylase 4 = Histone deacetylase 4 (Homo sapiens, UniProt P56524); test: Inhibition of human HDAC4 expressed in HEK293T cells assessed as aminomethyl coumarin release using Ac-KGLGK(Ac)-MCA) substrate after 30 mins by FLIPR method; type: cell-based; details: hek-293t
[2] = Selectivity index, ratio of IC50 for mouse HDAC6 to IC50 for human HDAC1
Histone deacetylase 1 = Histone deacetylase 1 (Homo sapiens, UniProt Q13547); test: Inhibition of human HDAC1 expressed in HEK293T cells assessed as aminomethyl coumarin release using Ac-KGLGK(Ac)-MCA) substrate after 30 mins by FLIPR method; type: cell-based, HEK-293T
[3] = Retention time by HPLC method; type: physicochemical

Chain of Histone deacetylase 4 (P56524 whole entry): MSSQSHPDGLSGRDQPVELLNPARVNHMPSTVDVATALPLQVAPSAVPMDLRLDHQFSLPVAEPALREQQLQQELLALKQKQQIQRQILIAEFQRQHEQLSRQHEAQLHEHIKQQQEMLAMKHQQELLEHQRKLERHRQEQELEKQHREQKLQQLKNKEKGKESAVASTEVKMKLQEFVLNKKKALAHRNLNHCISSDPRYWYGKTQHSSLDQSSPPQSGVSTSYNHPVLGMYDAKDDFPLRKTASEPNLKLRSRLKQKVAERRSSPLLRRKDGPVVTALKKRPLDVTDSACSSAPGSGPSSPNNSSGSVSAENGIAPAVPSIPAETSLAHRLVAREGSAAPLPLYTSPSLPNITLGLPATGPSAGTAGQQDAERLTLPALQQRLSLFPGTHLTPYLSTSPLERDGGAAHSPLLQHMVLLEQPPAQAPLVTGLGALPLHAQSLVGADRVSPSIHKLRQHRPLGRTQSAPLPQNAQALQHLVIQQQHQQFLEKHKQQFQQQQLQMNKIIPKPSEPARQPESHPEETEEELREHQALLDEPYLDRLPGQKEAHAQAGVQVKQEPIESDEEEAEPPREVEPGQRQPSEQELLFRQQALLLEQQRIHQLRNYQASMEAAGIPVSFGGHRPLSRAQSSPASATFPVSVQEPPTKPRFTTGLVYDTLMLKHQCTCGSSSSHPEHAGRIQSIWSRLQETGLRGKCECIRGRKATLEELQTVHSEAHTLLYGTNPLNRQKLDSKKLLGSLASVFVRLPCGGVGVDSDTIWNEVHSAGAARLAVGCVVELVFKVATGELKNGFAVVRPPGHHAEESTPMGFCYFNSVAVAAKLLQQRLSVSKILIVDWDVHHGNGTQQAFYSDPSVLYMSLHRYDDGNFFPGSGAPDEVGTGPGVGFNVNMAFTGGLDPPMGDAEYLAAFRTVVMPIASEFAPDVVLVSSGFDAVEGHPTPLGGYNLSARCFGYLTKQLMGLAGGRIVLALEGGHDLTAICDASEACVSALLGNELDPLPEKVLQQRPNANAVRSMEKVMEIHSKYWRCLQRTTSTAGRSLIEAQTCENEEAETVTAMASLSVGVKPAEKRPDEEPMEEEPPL
Chain of Histone deacetylase 1 (Q13547 whole entry): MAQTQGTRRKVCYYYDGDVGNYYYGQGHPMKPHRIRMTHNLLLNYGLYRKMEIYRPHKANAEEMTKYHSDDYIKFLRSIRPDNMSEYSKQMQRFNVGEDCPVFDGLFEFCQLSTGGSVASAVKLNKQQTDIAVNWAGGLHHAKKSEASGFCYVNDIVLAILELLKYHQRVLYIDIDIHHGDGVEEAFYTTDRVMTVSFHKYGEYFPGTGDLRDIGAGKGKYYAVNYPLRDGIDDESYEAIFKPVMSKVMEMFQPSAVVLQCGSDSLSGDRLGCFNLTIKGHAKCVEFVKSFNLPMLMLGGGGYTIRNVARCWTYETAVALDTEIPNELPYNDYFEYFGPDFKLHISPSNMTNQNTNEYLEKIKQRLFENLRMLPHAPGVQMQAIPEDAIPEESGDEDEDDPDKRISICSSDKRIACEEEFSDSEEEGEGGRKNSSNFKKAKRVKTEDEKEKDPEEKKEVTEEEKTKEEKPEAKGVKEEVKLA

SMILES	IC50 [1] [nM]	IC50 (Histone deacetylase 4) [nM]	Ratio IC50 [2]	IC50 (Histone deacetylase 1) [nM]	Retention_time [3] [min]	EC1000 (Mv1Lu) [nM]
O=C(CCCCC[C@@H]1NC(=O)[C@H]2CCCCCCCCCC[C@H](NC(=O)[C@H]3CCCN3C1=O)C(=O)N2)NO	490	31	19.6	25	7.06	58
CCCCC[C@@H]1NC(=O)[C@H]2CCCN2C(=O)[C@H](CCCCCC(=O)NO)NC(=O)[C@@H](CCCCC)NC1=O	570	43	13.3	43	7.67	80
O=C(CCCCC[C@@H]1NC(=O)[C@H]2CCCN2C(=O)[C@@H]2CCCCCCCCCC[C@@H](NC1=O)C(=O)N2)NO	410		45.1		6.03	7.2
CCCCC[C@@H]1NC(=O)[C@@H](CCCCC)NC(=O)[C@H](CCCCCC(=O)NO)NC(=O)[C@H]2CCCN2C1=O	340		13.6		7.51	13
O=C(CCCCC[C@@H]1NC(=O)[C@H]2CCCN2C(=O)[C@@H]2CCOCCCCOCC[C@@H](NC1=O)C(=O)N2)NO	240	41	7.7	31	4.31	2200

Now those with a lower IC50 [1], led by results:

IC50 [1] [nM]	IC50 (Histone deacetylase 4) [nM]	Ratio IC50 [2]	IC50 (Histone deacetylase 1) [nM]	Retention_time [3] [min]	SMILES	EC1000 (Mv1Lu) [nM]
13	3	32.5	0.4		CC[C@H](C)[C@@H]1NC(=O)[C@@H](Cc2ccc(OC)cc2)NC(=O)[C@H](CCCCCC(=O)NO)NC(=O)[C@H]2CCCN2C1=O (cyclo([Asu](NHOH)[dY](Me)I[dP]))	22
230	26	9.2	25	5.8	O=C(CCCCC[C@@H]1NC(=O)[C@H]2CCCN2C(=O)[C@@H]2CCCCCCCCCC[C@H](NC1=O)C(=O)N2)NO	510
140	15	3.7	37	6.55	CCCCC[C@@H]1NC(=O)[C@H](CCCCCC(=O)NO)NC(=O)[C@H]2CCCN2C(=O)[C@H](CCCCC)NC1=O	80
